In patent US20260124226A1 (priority 2023, published 2026):

What was measured:
[1] = system: VEEV; assay: microbe, parasite or virus in culture; assay type: cell-based, Venezuelan equine encephalitis virus; conditions: Venezuelan equine encephalitis virus, Vero 76, VEEV strain TC-83, Vero 76 cells
[2] = system: EEEV; assay: microbe, parasite or virus in culture; assay type: cell-based, Eastern equine encephalitis virus; conditions: Eastern equine encephalitis virus, Vero 76, EEEV strain FL39-939, Vero 76 cells
[3] = system: CHIKV; assay: microbe, parasite or virus in culture; assay type: cell-based, Chikungunya virus; conditions: Chikungunya virus, Huh-7
[4] = system: RVFV; assay: microbe, parasite or virus in culture; assay type: cell-based, Rift Valley fever virus; conditions: Rift Valley fever virus, Huh-7, RVFV strain MP-12, Huh7 cells
[5] = system: Junin virus; assay: microbe, parasite or virus in culture; assay type: cell-based; conditions: Mammarenavirus juninense, Vero
[6] = system: Tacaribe virus; assay: microbe, parasite or virus in culture; assay type: cell-based; conditions: Mammarenavirus tacaribeense, Vero
[7] = system: Influenza A H1N1; assay: microbe, parasite or virus in culture; assay type: cell-based, influenza A virus; conditions: Influenza A virus, H1N1, MDCK
[8] = system: Parainfluenza virus 3; assay: organism not typed; assay type: cell-based; conditions: MA104
[9] = system: RSV; assay: microbe, parasite or virus in culture; assay type: cell-based; conditions: human respiratory syncytial virus, MA104
[10] = system: MERS; assay: microbe, parasite or virus in culture; assay type: cell-based, MERS coronavirus; conditions: Middle East respiratory syndrome-related coronavirus, Vero 76
[11] = system: SARS-CoV-2; assay: microbe, parasite or virus in culture; assay type: cell-based; conditions: Severe acute respiratory syndrome coronavirus 2, Vero C1008
[12] = system: POWV; assay: microbe, parasite or virus in culture; assay type: cell-based, Powassan virus; conditions: Powassan virus, BHK-21, POWV(Lineage 1) strain LB, BHK-21 cells
[13] = system: DENV2; assay: microbe, parasite or virus in culture; assay type: cell-based, Dengue virus 2; conditions: Dengue virus, DENV2, Huh-7
[14] = system: WNV; assay: microbe, parasite or virus in culture; assay type: cell-based; conditions: West Nile virus, Vero 76
[15] = system: YFV; assay: microbe, parasite or virus in culture; assay type: cell-based; conditions: Yellow fever virus, Huh-7
[16] = system: Poliovirus; assay: microbe, parasite or virus in culture; assay type: cell-based; conditions: Enterovirus C, Vero 76, Poliovirus strain Mahoney, Vero 76 cells
[17] = system: Enterovirus-68; assay: microbe, parasite or virus in culture; assay type: cell-based, EV-D68; conditions: Enterovirus D, RD
[18] = system: ENTV71; assay: microbe, parasite or virus in culture; assay type: cell-based, EV-A71; conditions: Enterovirus A, Vero 76
[19] = system: HRV-14; assay: microbe, parasite or virus in culture; assay type: cell-based, human rhinovirus; conditions: Rhinovirus B, HRV14
[20] = system: MEV; assay: microbe, parasite or virus in culture; assay type: cell-based; conditions: Measles morbillivirus, Vero 76
[21] = female, ICR (CD-1), mouse, in vivo, po
[22] = mouse, in vivo, po, 15 mg/kg
[23] = in vitro; conditions: dog
[24] = in vitro; conditions: Syrian golden hamster
[25] = in vitro; conditions: human
[26] = in vitro; conditions: human; remark: listed apart in the source
[27] = in vitro; conditions: human; remark: listed apart in the source
[28] = physchem; conditions: simulated gi fluid, pH 1.3
[29] = physchem; conditions: simulated gi fluid, pH 5.2

Q: For `CC(C)OC(=O)[C@H](C)N[P@](=O)(OC[C@@]1(F)O[C@@H](n2ccc(=O)[nH]c2=O)[C@H](O)[C@@H]1O)Oc1ccccc1` [EIDD-3232, isopropyl ((S)-(((2S,3S,4R,5R)-5-(2,4-dioxo-3,4-dihydropyrimidin-1(2H)-yl)-2-fluoro-3,4-dihydroxytetrahydrofuran-2-yl)methoxy)(phenoxy)phosphoryl)-L-alaninate], which EC50 [1] is on record?
A: > 32 µM

Q: What about the EC50 [2] of the same molecule?
A: > 32 µM

Q: And the EC50 [3]?
A: 5.7 µM

Q: What about the EC90 [3] of the same molecule?
A: 4.5 µM

Q: And the EC50 [4]?
A: 6.4 µM

Q: And the EC90 [4]?
A: 7.4 µM

Q: And the EC90 [5]?
A: 2.2 µM

Q: And the EC50 ([5]; Junin virus strain Candid #1, Vero cells)?
A: 2 µM

Q: What about the EC90 [6] of the same molecule?
A: 3.9 µM

Q: And the EC50 ([6]; Tacaribe virus strain TRVL 11573, Vero cells)?
A: 2.8 µM

Q: And the EC50 [7]?
A: 1.3 µM

Q: And the EC90 [7]?
A: 1.5 µM

Q: And the EC50 [8]?
A: > 32 µM

Q: And the EC50 [9]?
A: > 32 µM

Q: What about the EC50 [10] of the same molecule?
A: > 32 µM

Q: And the EC50 [11]?
A: > 17 µM

Q: And the EC50 [12]?
A: > 32 µM

Q: What about the EC50 [13] of the same molecule?
A: 4.2 µM

Q: And the EC90 [13]?
A: 19 µM

Q: What about the EC50 [14] of the same molecule?
A: > 32 µM

Q: And the EC50 [15]?
A: 15 µM

Q: What about the EC50 [16] of the same molecule?
A: > 32 µM

Q: What about the EC50 [17] of the same molecule?
A: 18 µM

Q: What about the EC50 [18] of the same molecule?
A: > 32 µM

Q: And the EC50 [19]?
A: > 32 µM

Q: And the EC50 [20]?
A: 9.6 µM

Q: And the Cmax [21]?
A: 2940 ± 826 nM

Q: And the “Tolerability Summary” value [22]?
A: Class D

Q: And the CC50 [23]?
A: > 32 µM

Q: What about the CC50 [24] of the same molecule?
A: > 32 µM

Q: What about the CC50 [25] of the same molecule?
A: > 32 µM

Q: And the CC50 [26]?
A: > 32 µM

Q: What about the CC50 [27] of the same molecule?
A: > 32 µM

Q: What about the half-life [28] of the same molecule?
A: 4.8 h

Q: What about the half-life [29] of the same molecule?
A: > 24 h
